# Measurements from patent publication US4141986A, “Antibiotics 890A2 and 890A5” (Merck & Co., Inc., priority 1977, dated 1979).
# Test system: Vibrio percolans ATCC 8461
# Experiment: Assay procedure for 890 Assay Units, disc-diffusion with cephaloridine standard
# Format: cell-based
# Experimental: A conventional agar plate disc-diffusion method is employed using Vibrio percolans ATCC 8461 as tester organism. Cephaloridine is employed as a standard. Plates containing Vibrio percolans ATCC 8461 are prepared as follows. A culture of Vibrio percolans ATCC 8461 is incubated in nutrient broth-yeast extract overnight on a rotary shaker at 28° C. and then diluted to a density of 60% transmittance at 660 nm. A 33.2 ml. portion of this diluted culture is added to 1 liter of a medium composed of nutrient agar plus 0.2% yeast extract maintained at 46° C. The inoculated agar-containing medium is poured into 100 × 15 mm. plastic-petri dishes, 10 ml. per dish, chilled, and maintained at 2°-4° C. for up to 5 days before use.
# The concentration of cephaloridine which is equivalent to 1 unit/ml. of 890A is deterined by assay on plates prepared as above, but containing 5 ml. of inoculated medium per plate, as follows. Four concentrations of cephaloridine constitute the standard -- 3.12, 6.25, 12.5 and 25 mcg per ml. with the 12.5 mcg per ml. as a reference solution. The zone diameters on a 5 ml. plate for the standard are as follows:
# A unit is defined as the amount of antibiotic per ml. producing a 25 mm. zone of inhibition on a 5 ml. plate as described in section I above. Therefore, in this assay a concentration of 2.5 mcg per ml. of cephaloridine is considered equivalent to 1 unit of 890A per ml. Since the slope of the line for cephaloridine is 4.0 calculations of the potency of a sample are made using a slope of 4.0.
structure (smiles),measurement,setting,value
"O=C(Cc1cccs1)N[C@@H]1C(=O)N2C(C(=O)[O-])=C(C[n+]3ccccc3)CS[C@H]12 [cephaloridine, Cephaloridine]",concentration considered equivalent to 1 unit of 890A per ml.,25 mm. zone of inhibition on a 5 ml. plate,2.5 mcg per ml.
same,zone of inhibition at 3.12 µg/mL,"Comamonas terrigena, ATCC8461, 3.12 mcg./ml., 5 ml. plate, read-out: Zone Diameter",16.8 mm
same,zone of inhibition at 6.25 µg/mL,"Comamonas terrigena, ATCC8461, 6.25 mcg./ml., 5 ml. plate, read-out: Zone Diameter",22.3 mm
same,zone of inhibition at 12.5 µg/mL,"Comamonas terrigena, ATCC8461, 12.5 mcg./ml., 5 ml. plate, read-out: Zone Diameter",25 mm
same,zone of inhibition at 25 µg/mL,"Comamonas terrigena, ATCC8461, 25 mcg./ml., 5 ml. plate, read-out: Zone Diameter",29.6 mm
same,slope of the line,zone diameter against concentration of the standard,4.0
